Source: ChEMBL document CHEMBL1201861, “Genomics of Drug Sensitity in Cancer screening data, Wellcome Trust Sanger Institute”

Tests used:
Assay in all cases: cells
[1] = tested on: LC-2-ad; type: functional, cell-based, Homo sapiens; conditions: Homo sapiens, LC-2-ad;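 also: growth inhibition of human LC-2-ad cells, read out with a cell viability assay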
Description: SANGER: Inhibition of human LC-2-ad cell growth in a cell viability assay.

[2] = tested on: KURAMOCHI; type: functional, cell-based, Homo sapiens; conditions: Homo sapiens, KURAMOCHI;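 also: growth inhibition of KURAMOCHI cells, read out with a cell viability assay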
Description: SANGER: Inhibition of human KURAMOCHI cell growth in a cell viability assay.

[3] = tested on: MHH-PREB-1; type: functional, cell-based, Homo sapiens; conditions: Homo sapiens, MHH-PREB-1;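 also: cell viability assay measuring inhibition of proliferation of human MHH-PREB-1 cells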
Description: SANGER: Inhibition of human MHH-PREB-1 cell growth in a cell viability assay.

[4] = tested on: ONS-76; type: functional, cell-based, Homo sapiens; conditions: Homo sapiens, ONS-76;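 also: growth inhibition of human ONS-76 cells, read out with a cell viability assay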
Description: SANGER: Inhibition of human ONS-76 cell growth in a cell viability assay.

[5] = tested on: MMAC-SF; type: functional, cell-based, Homo sapiens; conditions: Homo sapiens, MMAC-SF;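 also: growth inhibition of human MMAC-SF cells, read out with a cell viability assay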
Description: SANGER: Inhibition of human MMAC-SF cell growth in a cell viability assay.

[6] = tested on: D-263MG; type: functional, cell-based, Homo sapiens; conditions: Homo sapiens, D-263MG
Description: SANGER: Inhibition of human D-263MG cell growth in a cell viability assay.

[7] = tested on: KU812 cell line; type: functional, cell-based, Homo sapiens; conditions: Homo sapiens, KU812;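 also: growth inhibition of KU812 cells, read out with a cell viability assay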
Description: SANGER: Inhibition of human KU812 cell growth in a cell viability assay.

[8] = tested on: JVM-2; type: functional, cell-based, Homo sapiens; conditions: Homo sapiens, JVM-2;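 also: growth inhibition of JVM-2 cells determined by a cell viability assay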
Description: SANGER: Inhibition of human JVM-2 cell growth in a cell viability assay.

[9] = tested on: GI-1; type: functional, cell-based, Homo sapiens; conditions: Homo sapiens, GI-1;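 also: growth inhibition of human GI-1 cells, measured with a cell viability readout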
Description: SANGER: Inhibition of human GI-1 cell growth in a cell viability assay.

[10] = tested on: KG-1; type: functional, cell-based, Homo sapiens; conditions: Homo sapiens, KG-1;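 also: growth inhibition of KG-1 cells, read out by a cell viability assay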
Description: SANGER: Inhibition of human KG-1 cell growth in a cell viability assay.

[11] = tested on: NKM-1; type: functional, cell-based, Homo sapiens; conditions: Homo sapiens, NKM-1;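 also: growth inhibition of NKM-1 cells, read out with a cell viability assay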
Description: SANGER: Inhibition of human NKM-1 cell growth in a cell viability assay.

[12] = tested on: MZ2-MEL; type: functional, cell-based, Homo sapiens; conditions: Homo sapiens, MZ2-MEL;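 also: growth inhibition of MZ2-MEL cells read out with a cell viability assay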
Description: SANGER: Inhibition of human MZ2-MEL cell growth in a cell viability assay.

[13] = tested on: A101D; type: functional, cell-based, Homo sapiens; conditions: Homo sapiens, A101D;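 also: growth inhibition of the cell line, measured with a viability assay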
Description: SANGER: Inhibition of human A101D cell growth in a cell viability assay.

[14] = tested on: MZ7-mel; type: functional, cell-based, Homo sapiens; conditions: Homo sapiens, MZ7-mel;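 also: growth inhibition of human MZ7-mel cells, measured by a cell viability assay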
Description: SANGER: Inhibition of human MZ7-mel cell growth in a cell viability assay.

[15] = tested on: LNCaP-Clone-FGC; type: functional, cell-based, Homo sapiens; conditions: Homo sapiens, LNCaP-Clone-FGC
Description: SANGER: Inhibition of human LNCaP-Clone-FGC cell growth in a cell viability assay.

[16] = tested on: SF-539; type: functional, cell-based, Homo sapiens; conditions: Homo sapiens, SF-539;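 also: Read-out is a cell viability assay, with IC50 reflecting inhibition of cell growth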
Description: SANGER: Inhibition of human SF539 cell growth in a cell viability assay.

[17] = tested on: KP-N-YS; type: functional, cell-based, Homo sapiens; conditions: Homo sapiens, KP-N-YS;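 also: cell viability assay measuring inhibition of cell line growth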
Description: SANGER: Inhibition of human KP-N-YS cell growth in a cell viability assay.

[18] = tested on: LS-513; type: functional, cell-based, Homo sapiens; conditions: Homo sapiens, LS-513
Description: SANGER: Inhibition of human LS-513 cell growth in a cell viability assay.

[19] = tested on: ACN; type: functional, cell-based, Homo sapiens; conditions: Homo sapiens, ACN;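 also: growth inhibition of the human ACN cell line, read out via cell viability testing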
Description: SANGER: Inhibition of human ACN cell growth in a cell viability assay.

[20] = tested on: NB69; type: functional, cell-based, Homo sapiens; conditions: Homo sapiens, NB69;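 also: growth inhibition of NB69 cells, determined by a cell viability assay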
Description: SANGER: Inhibition of human NB69 cell growth in a cell viability assay.

[21] = tested on: CW-2; type: functional, cell-based, Homo sapiens; conditions: Homo sapiens, CW-2;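 also: growth inhibition of CW-2 cells, read out by a cell viability assay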
Description: SANGER: Inhibition of human CW-2 cell growth in a cell viability assay.

[22] = tested on: NCI-H446; type: functional, cell-based, Homo sapiens; conditions: Homo sapiens, NCI-H446;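 also: growth inhibition of NCI-H446 cells determined by a cell viability assay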
Description: SANGER: Inhibition of human NCI-H446 cell growth in a cell viability assay.

[23] = tested on: Calu-6; type: functional, cell-based, Homo sapiens; conditions: Homo sapiens, Calu-6;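 also: growth of human Calu-6 cells, read out by a cell viability assay, IC50 marking inhibition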
Description: SANGER: Inhibition of human Calu-6 cell growth in a cell viability assay.

[24] = tested on: HuTu80; type: functional, cell-based, Homo sapiens, HUTU-80; conditions: Homo sapiens, HuTu80;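 also: growth inhibition of HuTu80 human cells, determined with a cell viability readout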
Description: SANGER: Inhibition of human HUTU-80 cell growth in a cell viability assay.

[25] = tested on: A253 cell line; type: functional, cell-based, Homo sapiens; conditions: Homo sapiens, A253;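 also: growth inhibition of A253 cells, read out with a cell viability assay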
Description: SANGER: Inhibition of human A253 cell growth in a cell viability assay.

[26] = tested on: 697; type: functional, cell-based, Homo sapiens; conditions: Homo sapiens
Description: SANGER: Inhibition of human 697 cell growth in a cell viability assay.

[27] = tested on: LB2518-MEL; type: functional, cell-based, Homo sapiens; conditions: Homo sapiens, LB2518-MEL;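 also: growth inhibition of human LB2518-MEL cells, measured with a cell viability assay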
Description: SANGER: Inhibition of human LB2518-MEL cell growth in a cell viability assay.

[28] = tested on: NB12; type: functional, cell-based, Homo sapiens; conditions: Homo sapiens, NB12;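 also: growth inhibition of human NB12 cells, read out by a cell viability assay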
Description: SANGER: Inhibition of human NB12 cell growth in a cell viability assay.

[29] = tested on: NB5; type: functional, cell-based, Homo sapiens; conditions: Homo sapiens, NB5;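 also: growth inhibition of NB5 cells, read out as cell viability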
Description: SANGER: Inhibition of human NB5 cell growth in a cell viability assay.

[30] = tested on: MC116; type: functional, cell-based, Homo sapiens; conditions: Homo sapiens, MC116;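 also: growth inhibition of MC116 cells, read out with a cell viability assay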
Description: SANGER: Inhibition of human MC116 cell growth in a cell viability assay.

[31] = tested on: HT; type: functional, cell-based, Homo sapiens; conditions: Homo sapiens, HT
Description: SANGER: Inhibition of human HT cell growth in a cell viability assay.

[32] = tested on: SNB-75; type: functional, cell-based, Homo sapiens; conditions: Homo sapiens, SNB-75;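 also: cell viability assay measuring growth inhibition of human SNB-75 cells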
Description: SANGER: Inhibition of human SNB75 cell growth in a cell viability assay.

[33] = tested on: Lu-65; type: functional, cell-based, Homo sapiens; conditions: Homo sapiens, Lu-65;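 also: growth inhibition of Lu-65 cancer cells, read out by a cell viability assay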
Description: SANGER: Inhibition of human LU-65 cell growth in a cell viability assay.

[34] = tested on: OMC-1; type: functional, cell-based, Homo sapiens; conditions: Homo sapiens, OMC-1;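 also: growth inhibition of the OMC-1 cell line, measured by a cell viability assay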
Description: SANGER: Inhibition of human OMC-1 cell growth in a cell viability assay.

[35] = tested on: GT3TKB; type: functional, cell-based, Homo sapiens; conditions: Homo sapiens, GT3TKB;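 also: growth inhibition of the cell line, read out with a cell viability assay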
Description: SANGER: Inhibition of human GT3TKB cell growth in a cell viability assay.

[36] = tested on: TE-8; type: functional, cell-based, Homo sapiens; conditions: Homo sapiens, TE-8;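 also: growth inhibition of TE-8 cells, measured with a cell viability readout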
Description: SANGER: Inhibition of human TE-8 cell growth in a cell viability assay.

[37] = tested on: JAR; type: functional, cell-based, Homo sapiens; conditions: Homo sapiens, JAR;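 also: growth inhibition of human JAR cells determined with a cell viability assay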
Description: SANGER: Inhibition of human JAR cell growth in a cell viability assay.

[38] = tested on: HCE-T; type: functional, cell-based, Homo sapiens; conditions: Homo sapiens, HCE-T;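 also: cell viability assay read-out, reporting inhibition of HCE-T cell growth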
Description: SANGER: Inhibition of human HCE-T cell growth in a cell viability assay.

[39] = tested on: RCC10RGB; type: functional, cell-based, Homo sapiens; conditions: Homo sapiens, RCC10RGB;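 also: growth inhibition of human RCC10RGB cells, read out by a cell viability assay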
Description: SANGER: Inhibition of human RCC10RGB cell growth in a cell viability assay.

[40] = tested on: L-428; type: functional, cell-based, Homo sapiens; conditions: Homo sapiens, L-428
Description: SANGER: Inhibition of human L-428 cell growth in a cell viability assay.

[41] = tested on: SW872; type: functional, cell-based, Homo sapiens; conditions: Homo sapiens, SW872;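 also: growth inhibition of SW872 cells, read out by a viability assay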
Description: SANGER: Inhibition of human SW872 cell growth in a cell viability assay.

[42] = tested on: MLMA; type: functional, cell-based, Homo sapiens; conditions: Homo sapiens, MLMA;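 also: growth inhibition of MLMA cells (human), determined through a cell viability readout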
Description: SANGER: Inhibition of human MLMA cell growth in a cell viability assay.

[43] = tested on: SK-UT-1; type: functional, cell-based, Homo sapiens; conditions: Homo sapiens, SK-UT-1;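 also: growth inhibition of SK-UT-1 cells, measured by a cell viability assay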
Description: SANGER: Inhibition of human SK-UT-1 cell growth in a cell viability assay.

[44] = tested on: DB; type: functional, cell-based, Homo sapiens; conditions: Homo sapiens, DB
Description: SANGER: Inhibition of human DB cell growth in a cell viability assay.

[45] = tested on: KE-37; type: functional, cell-based, Homo sapiens; conditions: Homo sapiens, KE-37;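 also: growth inhibition of KE-37 cells, read out with a cell viability assay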
Description: SANGER: Inhibition of human KE-37 cell growth in a cell viability assay.

[46] = tested on: DEL; type: functional, cell-based, Homo sapiens; conditions: Homo sapiens, DEL;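 also: growth inhibition of the human DEL cell line, read out with a cell viability assay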
Description: SANGER: Inhibition of human DEL cell growth in a cell viability assay.

[47] = tested on: C8166; type: functional, cell-based, Homo sapiens; conditions: Homo sapiens, C8166;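 also: growth inhibition of human C8166 cells measured by a cell viability assay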
Description: SANGER: Inhibition of human C8166 cell growth in a cell viability assay.

[48] = tested on: LU-134-A; type: functional, cell-based, Homo sapiens; conditions: Homo sapiens, LU-134-A
Description: SANGER: Inhibition of human LU-134-A cell growth in a cell viability assay.

[49] = tested on: TE-1; type: functional, cell-based, Homo sapiens; conditions: Homo sapiens, TE-1;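 also: growth inhibition of the human TE-1 cell line, read out with a cell viability assay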
Description: SANGER: Inhibition of human TE-1 cell growth in a cell viability assay.

[50] = tested on: COLO-668; type: functional, cell-based, Homo sapiens; conditions: Homo sapiens, COLO-668
Description: SANGER: Inhibition of human COLO-668 cell growth in a cell viability assay.

SMILES: CC(C)CCN1c2nc(Nc3cc(F)c(O)c(F)c3)ncc2N(C)C(=O)C1C (configuration not stated)
- IC50 [1]: > 5 µM
- IC50 [2]: > 5 µM
- IC50 [3]: 4.4 µM
- IC50 [4]: > 5 µM
- IC50 [5]: > 5 µM
- IC50 [6]: > 5 µM
- IC50 [7]: 0.626 µM
- IC50 [8]: > 5 µM
- IC50 [9]: 3.15 µM
- IC50 [10]: 3.61 µM
- IC50 [11]: > 5 µM
- IC50 [12]: > 5 µM
- IC50 [13]: 4.97 µM
- IC50 [14]: > 5 µM
- IC50 [15]: 3.7 µM
- IC50 [16]: > 5 µM
- IC50 [17]: 0.682 µM
- IC50 [18]: > 5 µM
- IC50 [19]: 2.67 µM
- IC50 [20]: > 5 µM
- IC50 [21]: > 5 µM
- IC50 [22]: 3.68 µM
- IC50 [23]: > 5 µM
- IC50 [24]: 3.67 µM
- IC50 [25]: > 5 µM
- IC50 [26]: 2.02 µM
- IC50 [27]: > 5 µM
- IC50 [28]: > 5 µM
- IC50 [29]: > 5 µM
- IC50 [30]: > 5 µM
- IC50 [31]: > 5 µM
- IC50 [32]: > 5 µM
- IC50 [33]: > 5 µM
- IC50 [34]: > 5 µM
- IC50 [35]: 3.76 µM
- IC50 [36]: 3.19 µM
- IC50 [37]: > 5 µM
- IC50 [38]: > 5 µM
- IC50 [39]: > 5 µM
- IC50 [40]: > 5 µM
- IC50 [41]: > 5 µM
- IC50 [42]: > 5 µM
- IC50 [43]: > 5 µM
- IC50 [44]: 2.55 µM
- IC50 [45]: 1.59 µM
- IC50 [46]: > 5 µM
- IC50 [47]: > 5 µM
- IC50 [48]: 3.95 µM
- IC50 [49]: > 5 µM
- IC50 [50]: > 5 µM

SMILES: C#Cc1cccc(Nc2ncnc3cc(OCCOC)c(OCCOC)cc23)c1 [ERLOTINIB]
- IC50 [1]: > 2 µM
- IC50 [2]: > 2 µM
- IC50 [3]: > 2 µM
- IC50 [4]: > 2 µM
- IC50 [5]: > 2 µM
- IC50 [6]: > 2 µM
- IC50 [7]: > 2 µM
- IC50 [8]: > 2 µM
- IC50 [9]: > 2 µM
- IC50 [10]: > 2 µM
- IC50 [11]: > 2 µM
- IC50 [12]: > 2 µM
- IC50 [13]: > 2 µM
- IC50 [14]: > 2 µM
- IC50 [15]: > 2 µM
- IC50 [16]: > 2 µM
- IC50 [17]: > 2 µM
- IC50 [18]: > 2 µM
- IC50 [19]: > 2 µM
- IC50 [20]: > 2 µM
- IC50 [21]: > 2 µM
- IC50 [22]: > 2 µM
- IC50 [23]: > 2 µM
- IC50 [24]: > 2 µM
- IC50 [25]: > 2 µM
- IC50 [26]: > 2 µM
- IC50 [27]: > 2 µM
- IC50 [28]: > 2 µM
- IC50 [29]: > 2 µM
- IC50 [30]: > 2 µM
- IC50 [31]: > 2 µM
- IC50 [32]: > 2 µM
- IC50 [33]: > 2 µM
- IC50 [34]: > 2 µM
- IC50 [35]: > 2 µM
- IC50 [36]: > 2 µM
- IC50 [38]: > 2 µM
- IC50 [39]: > 2 µM
- IC50 [40]: > 2 µM
- IC50 [41]: > 2 µM
- IC50 [42]: > 2 µM
- IC50 [43]: > 2 µM
- IC50 [45]: > 2 µM
- IC50 [46]: > 2 µM
- IC50 [47]: > 2 µM
- IC50 [48]: > 2 µM
- IC50 [49]: 1.4 µM
- IC50 [50]: > 2 µM

SMILES: CC[C@H](CO)Nc1nc(NCc2ccccc2)c2ncn(C(C)C)c2n1 [SELICICLIB]
- IC50 [1]: > 16 µM
- IC50 [3]: > 16 µM
- IC50 [4]: > 16 µM
- IC50 [5]: > 16 µM
- IC50 [6]: > 16 µM
- IC50 [7]: > 16 µM
- IC50 [8]: > 16 µM
- IC50 [9]: > 16 µM
- IC50 [10]: > 16 µM
- IC50 [11]: > 16 µM
- IC50 [12]: > 16 µM
- IC50 [13]: > 16 µM
- IC50 [14]: > 16 µM
- IC50 [15]: > 16 µM
- IC50 [16]: > 16 µM
- IC50 [17]: > 16 µM
- IC50 [18]: > 16 µM
- IC50 [19]: > 16 µM
- IC50 [20]: > 16 µM
- IC50 [21]: > 16 µM
- IC50 [22]: > 16 µM
- IC50 [23]: > 16 µM
- IC50 [24]: > 16 µM
- IC50 [25]: > 16 µM
- IC50 [26]: 12.6 µM
- IC50 [27]: > 16 µM
- IC50 [28]: > 16 µM
- IC50 [29]: > 16 µM
- IC50 [30]: > 16 µM
- IC50 [31]: > 16 µM
- IC50 [32]: > 16 µM
- IC50 [33]: > 16 µM
- IC50 [34]: > 16 µM
- IC50 [35]: > 16 µM
- IC50 [36]: > 16 µM
- IC50 [37]: > 16 µM
- IC50 [38]: > 16 µM
- IC50 [39]: > 16 µM
- IC50 [40]: > 16 µM
- IC50 [41]: > 16 µM
- IC50 [42]: > 16 µM
- IC50 [43]: 10.3 µM
- IC50 [44]: > 16 µM
- IC50 [45]: > 16 µM
- IC50 [46]: > 16 µM
- IC50 [47]: > 16 µM
- IC50 [48]: > 16 µM
- IC50 [49]: > 16 µM
- IC50 [50]: > 16 µM
